Results as given in US20040121307A1, “Early detection of cellular differentiation using optophoresis” (Genoptix, Inc, priority 2002, published 2004).
Counter-ions that a name gives are not always drawn. Like-named read-outs stand apart in the source and are kept apart here. One block for each compound: values may come before it.

How the values were obtained:
CEM/C2 cell line = conditions: cell lines obtained from ATCC; cited from earlier work
CCRF-CEM cells = assay: Experiment 14, fifth experiment: topotecan on sensitive cell line, escape velocity; assay type: cell-based; conditions: 10 μM topotecan, 6 hours
Experimental: In a fifth experiment, two different cell lines obtained from ATCC which have varying degrees of sensitivity to topoisomerase I inhibitors such as camptothecin and topotecan were subject to Optophoretic analysis. A group of cells from a parental cell line CCRF-CEM that is sensitive to camptothecin and topotecan were incubated for 6 hours with 10 μM topotecan. Another group of cells from the cell line CEM/C2, which are 970-fold less sensitive to camptothecin and topotecan, were also incubated for 6 hours with 10 μM topotecan. Control cells from both the CCRF-CEM and CEM/C2 cell lines were also tested. The cells were incubated for six hours and prepared for testing in accordance with the procedures described above in the prior experiments. The cells were then loaded onto a cover slip containing agarose that was spin-coated onto the surface thereof. Escape velocity measurements were then taken using a 100 mW laser with a diameter of 28 pixels. […] Optophoretic analysis was thus able to score cross-resistance of camptothecin-resistant cell lines to topotecan, an analog of camptothecin.

U937 cells [1] = test system: U937 cells
Experimental: Both groups of cells were incubated with compound in 0.1% DMSO (or simply 0.1% DMSO in the case of the control) for four hours. At the end of the incubation period, the cells were centrifuged down for 3-5 minutes at 5000 rpm in a Model V microcentrifuge (VWR scientific). The supernatant was then aspirated and the pellet resuspended in 1 ml PBS/1% BSA buffer plus 1:10 trypan blue. Escape velocity measurements were then taken of the cells.
The different groups of cells were incubated for various time periods (3, 6, 9, and 24 hours) and escape velocity measurements were made. At the end of the incubation period, the cells were centrifuged down for five minutes at 5000 rpm. The supernatant was then removed and the pellet resuspended in 1 ml PBS/1% BSA buffer plus 1:10 trypan blue. The cells were then loaded onto a cover slip containing agarose that was spin-coated onto the surface thereof.
The cells were incubated for four hours and prepped for testing in accordance with the procedures described above in the prior experiments. The cells were then loaded onto a cover slip containing agarose that was spin-coated onto the surface thereof. Escape velocity measurements were then taken using a 100 mW laser with a diameter of 21.5 pixels.
The groups of cells were incubated (or simply 0.1% DMSO in the case of the control) for six hours. At the end of the incubation period, the cells were centrifuged down for five minutes at 5000 rpm. The supernatant was then removed and the pellet resuspended in 1 ml PBS/1% BSA buffer plus 1:10 trypan blue. The cells were then loaded onto a cover slip containing agarose that was spin-coated onto the surface thereof. Escape velocity measurements were then taken using a 100 mW laser with a diameter of 28 pixels. Escape velocity measurements were then taken of the cells.
The groups of cells were incubated for six hours with compound (or simply DMSO in the case of the control). At the end of the incubation period, the cells were centrifuged down for five minutes at 5000 rpm. […]

Jurkat cells = assay: Experiment 5: TNF-α effect, escape velocity; assay type: cell-based; conditions: TNF inhibitor added with TNF (FIG. 36)
Experimental: After 48 hours of incubation, the cells were removed and centrifuged for 5 minutes at 5,000 rpm. Then the cells were resuspended in PBS/1% BSA and trypan blue. A higher power setting, 140 mW instead of 100 mW, was used for this experiment. The escape velocities were measured as follows:
In this experiment Leflunomide and Silymarin were added with TNF to see if the anticipated increase in escape velocity measurements could be counteracted by the presence of the TNF inhibitors.

Chang liver cells [2] = assay type: cell-based; conditions: human, 1 μm
Experimental: (§1) This experiment is designed to test the effect of ketoconazole on human liver cells. Ketoconazole induces toxicity in liver cells. The sample cells were Chang liver cells. The concentration of ketoconazole used to treat the cells was 1 μm. Escape velocity and fast scan protocols were applied to determine the impact, if any, of ketoconazole treatment. […] Consequently, Optophoresis was able to detect an effect on the escape velocity of treated cells within 1.5 hours of exposure to ketoconazole. FIGS. 44-45 show the fast scan results of ketoconazole-treated Chang liver cells. […] The ketoconazole-treated cells generally traveled a smaller distance as compared to the non-treated control.

Chang liver cells [3] = assay: Experiment 10: toxicity of ketoconazole, escape velocity; assay type: cell-based, human; conditions: 1 μm ketoconazole, 1.5 hours of treatment
Experimental: as §1

[4] = test system: CD11b expression in HL-60 cells; assay: FACS CD11b expression profile; assay type: cell-based; conditions: 1% DMSO
Experimental: (§2) Fast scan analysis was also performed on HL-60 cells that were treated with PMA and DMSO. A time course evaluation of PMA treated HL-60 cells was performed with fast scan data taken at 16 hours, 24 hours, 40 hours, and 72 hours post-treatment with 400 ng/ml PMA. A control sample of HL-60 cells was also tested using EtOH as the vehicle for purposes of comparing the differentiated cells with the undifferentiated HL-60 cells. The PMA-treated and control cells were harvested and trypsinized. The samples were then resuspended in PBS/1% BSA. A set of samples was also obtained and left as pellets at 4° C. for subsequent FACS analysis.
FIG. 145 illustrates a histogram of the travel distance of the control cells as well as the PMA-treated cells at 16 hours, 24 hours, 40 hours, and 72 hours post-treatment. FIG. 146 illustrates the mean travel distances of the control cells as well as the PMA-treated cells at 16 hours, 24 hours, 40 hours, and 72 hours post-treatment. FIG. 147 illustrates the FACS CD11b expression profile in PMA-treated HL-60 cells as well as the control. CD11b is a known marker of cellular differentiation and is expressed on the surface of differentiating cells. […] The data illustrate that Optophoretic analysis can be used as an assay for the detection and quantification of cellular differentiation. […]

HL-60 cells = assay: Cellular differentiation of HL-60, fast scan time course; assay type: cell-based; conditions: 1% DMSO
Experimental: as §2
A time course evaluation of DMSO treated HL-60 cells was performed with fast scan data taken at 16 hours, 24 hours, 40 hours, and 70 hours post-treatment with 1% DMSO. A control sample of HL-60 cells was also tested for purposes of comparing the differentiated cells with the undifferentiated HL-60 cells. The DMSO-treated and control cells were then harvested and resuspended in PBS/1% BSA. A set of samples was also obtained and left as pellets at 4° C. for subsequent FACS analysis.

EM-3 cells = assay: Experiments 9 and 9.1: Gleevec and other kinase inhibitors, fast scan; assay type: cell-based; conditions: for Mean Distance: 1 μM, 48 hours of exposure
Experimental: A second group of cells were treated with 1 μM Src-Family Protein Tyrosine Kinase Inhibitor Set, obtained from CALBIOCHEM (Cat. No. 567816). The Src Set contained four inhibitors, namely, Genistein, Herbimycin A, Streptomyces sp., PP2, and PP3. A third group of cells were treated with 1 μM Staurosporine. A fourth group of cells were treated with 1 μM TK Inhibitor Set, also obtained from CALBIOCHEM (Cat. No. 657021). The TK Inhibitor Set contained five inhibitors, Genistein, PP2, AG490, AG1296, and AG1478. […] Measurements were taken after 48 hours of exposure.
Fast scan analysis was performed after 48 hours of incubation.

U937 cells [5] = assay: Experiment 3: PMA inhibition by bisindolymaleimide, escape velocity; assay type: cell-based; conditions: for average escape velocity / escape velocity, Ave.: four hours; for escape velocity, Ave.: no PMA
Description: The objective of this experiment was to test the effect of bisindolymaleimide on cells exposed to PMA. Bisindolymaleimide is a Protein Kinase C inhibitor and should block the effect of PMA on U937 cells and their escape velocities. As shown in this and prior experiments, exposure of U937 cells to PMA results in an increase in the escape velocity of the cells. Therefore, it is anticipated that addition of bisindolymaleimide will reduce or eliminate the increase in escape velocity caused by PMA. This has in fact been observed in the data shown below.
Bisindolymaleimide was tested at two concentrations: 200 ng/ml and 50 ng/ml. Samples not treated with bisindolymaleimide received an equivalent amount of the carrier, MeOH, as a control. […] The concentration of PMA tested was 10 ng/ml. Samples not receiving PMA received DMSO.
Once the flasks were prepared, they were incubated at 37° C. 5% CO2 for four hours. At the four hour timepoint, 300 μl of cells were removed from each flask and pelleted at 5000 rpm for 5 minutes. The cells were then resuspended in 6 ml PBS/1% BSA and 60 μl trypan blue.

[6] = test system: K562, BV-173, EM-3, and U-937 cells; assay: Experiment 8: effect of Gleevec, escape velocity; assay type: cell-based; conditions: 72 hours after exposure, all four cell types
Description: The U-937 cells have no copies of the gene. The K-562 line of cells has, on average, one copy of the gene per cell. The BV-173line of cells has, on average, three copies of the gene per cell. The EM-3 cell line has, on average, five copies of the gene per cell. […] FIG. 44 illustrates the measured escape velocities (average) for each of the four cell types. […] In addition, the decrease in escape velocity for the Gleevec-treated cells was more pronounced in those cell lines that had higher copy numbers of the Bcr-Abl gene.

U937 cells [7] = test system: U937 cells; remark: listed apart in the source
Experimental: This experiment is designed to compare the effects of two concentrations of sodium salicylate on U937 cells. Sodium salicylate was prepared at two concentrations: 20 mM and 5 mM. The escape velocities of the cells was tested at 5 hours, 24 hours and 47 hours. At each timepoint, 30 μl of sample was pelleted at 5,000 rpm for 5 minutes and then resuspended in PBS/1% BSA and trypan blue.

[8] = test system: Erythromycin-resistant strain; assay: Bacterial screen for drug sensitivity, escape velocity, resistant strain; assay type: cell-based, Staphylococcus aureus; conditions: 5 μg/ml Erythromycin (FIG. 80)
Experimental: (§3) In this experiment, escape velocity was measured over time in wild type Staphylococcus aureus and an Erythromycin-resistant strain. 5 μg/ml of Erythromycin was applied to both the wild type Staphylococcus aureus and an Erythromycin-resistant strain. Escape velocity measurements were taken at time zero, 30 minutes post-treatment, and 3 hours post-treatment. […] In this experiment, however, escape velocity measurements were made at time zero, 30 minutes post-treatment, and 1 hour post-treatment, and 2 hours post-treatment. A reduction in escape velocity of the Erythromycin-sensitive strain can be seen at 1 hour post-treatment.

[9] = test system: wild type Staphylococcus aureus; assay: Bacterial screen for drug sensitivity, escape velocity, sensitive strain; assay type: cell-based
Experimental: as §3

SMILES: CC[C@@]1(O)C(=O)OCc2c1cc1n(c2=O)Cc2cc3c(CN(C)C)c(O)ccc3nc2-1 [topotecan]
fold less sensitive than parental CCRF-CEM (CEM/C2 cell line): 970 fold
decrease in escape velocity (CCRF-CEM cells): larger decrease in escape velocity as compared to the CEM/C2 cells
shift in escape velocity (U937 cells [1]; 4 μg/ml, four hours (FIG. 54)): larger shift in escape velocity as compared to the camptothecin-treated cells
cell death (U937 cells [1]; human, 24 h, 10 μM): virtually all of the treated U937 cells were dead
potency by escape velocity concentration curves (U937 cells [1]; six hours, FIG. 65 versus FIG. 70): higher potency of topotecan as compared to camptothecin

SMILES: Cc1oncc1C(=O)Nc1ccc(C(F)(F)F)cc1 [Leflunomide]
effect on the increase in escape velocity caused by TNF (Jurkat cells): mitigate the increase in escape velocity caused by TNF

mean travel distance (Chang liver cells [2]): 20.97 μm
SMILES: CC(=O)N1CCN(c2ccc(OCC3COC(Cn4ccnc4)(c4ccc(Cl)cc4Cl)O3)cc2)CC1 (stereo not drawn) [ketoconazole]
escape velocity versus control (Chang liver cells [3]): marked decrease in escape velocity

SMILES: C[S+](C)[O-] [DMSO, dimethylsulfoxide]
time after treatment at which FACS detected a change in CD11b expression levels [4]: 40 h
course of mean travel distance (HL-60 cells; 16 to 72 hours (FIG. 149)): mean travel distance progressively decreased as time elapsed
time after treatment at which a noticeable decrease in mean travel distance was detected (HL-60 cells; fast scan): ≤ 16 h

SMILES: CN[C@@H]1C[C@H]2O[C@@](C)([C@@H]1OC)n1c3ccccc3c3c4c(c5c6ccccc6n2c5c31)C(=O)NC4 [Staurosporine]
Mean Distance (EM-3 cells): 9.250 μm

SMILES: CN(C)CCCn1cc(C2=C(c3c[nH]c4ccccc34)C(=O)NC2=O)c2ccccc21 [Bisindolymalemide]
average escape velocity (U937 cells [5]; 50 ng/ml bisindolymaleimide + 10 ng/ml PMA): 15.1 μm/sec
escape velocity, Ave. (U937 cells [5]; 50 ng/ml bisindolymaleimide): 13.9
effect on the optophoretic shift in escape velocity caused by PMA (U937 cells [5]; 200 ng/ml BIMI for 30 minutes followed by 10 ng/ml PMA (FIG. 33)): blocked the optophoretic shift in escape velocity
average escape velocity (U937 cells [5]; 200 ng/ml bisindolymaleimide + 10 ng/ml PMA): 14.5 μm/sec
escape velocity, Ave. (U937 cells [5]; 200 ng/ml bisindolymaleimide): 14.0

SMILES: Cc1ccc(NC(=O)c2ccc(CN3CCN(C)CC3)cc2)cc1Nc1nccc(-c2cccnc2)n1 [Gleevec, imatinib mesylate]
Mean Distance (EM-3 cells): 13.199 μm
response of mean travel distance to varying concentration (EM-3 cells; 0.06 to 4 μM Gleevec, 48 hours): dose-dependent response
escape velocity as compared to non-treated cells [6]: significantly lower escape velocity

SMILES: O=C([O-])c1ccccc1O.[Na+] [Sodium Salicylate, sodium salicylate]
shift in escape velocities (U937 cells [7]; 5 mM and 20 mM salicylic acid, 5 and 24 hours (FIG. 37)): slight but statistically significant shift in escape velocities
escape velocity, Ave. (U937 cells [7]; 5 mM sodium salicylate, 5 hours): 14.1
escape velocity, Ave. (U937 cells [7]; 5 mM sodium salicylate, 24 hours): 15.2
escape velocity, Ave. (U937 cells [7]; 5 mM sodium salicylate, 47 hours): 13.7
escape velocity, Ave. (U937 cells [7]; 20 mM sodium salicylate, 5 hours): 13.3
escape velocity, Ave. (U937 cells [7]; 20 mM sodium salicylate, 24 hours): 16.0
cell viability (trypan blue) (U937 cells [7]; 20 mM, 47 hours): all cells were dead

SMILES: CC[C@H]1OC(=O)[C@H](C)[C@@H](O[C@H]2C[C@@](C)(OC)[C@@H](O)[C@H](C)O2)[C@H](C)[C@@H](O[C@@H]2O[C@H](C)C[C@H](N(C)C)[C@H]2O)[C@](C)(O)C[C@@H](C)C(=O)[C@H](C)[C@@H](O)[C@]1(C)O [Erythromycin]
escape velocity after treatment [8]: same escape velocity as the untreated Erythromycin-sensitive strain
time at which a reduction in escape velocity can be seen ([9]; 5 μg/ml Erythromycin (FIG. 81)): 1 h
change of escape velocity over time ([9]; 5 μg/ml Erythromycin, time zero, 30 minutes, 3 hours post-treatment (FIG. 80)): escape velocity of the Erythromycin-sensitive strain decreases
